One may read the IC50 as the concentration that gives 50% inhibition.

The target of this assay is human HPK1 (MAP4K1) (Homo sapiens (Human), UniProt Q92918). The experiment in a line: HPK1 IC50 Assay. Format: biochemical. As to conditions: recombinant HPK1 kinase domain 0.15 nM, synthetic peptide substrate STK S1, 3 hours at 25° C., time-resolved fluorescence energy transfer; geometric mean of multiple experiments.
Chain of human HPK1 (MAP4K1) (Q92918 17-274): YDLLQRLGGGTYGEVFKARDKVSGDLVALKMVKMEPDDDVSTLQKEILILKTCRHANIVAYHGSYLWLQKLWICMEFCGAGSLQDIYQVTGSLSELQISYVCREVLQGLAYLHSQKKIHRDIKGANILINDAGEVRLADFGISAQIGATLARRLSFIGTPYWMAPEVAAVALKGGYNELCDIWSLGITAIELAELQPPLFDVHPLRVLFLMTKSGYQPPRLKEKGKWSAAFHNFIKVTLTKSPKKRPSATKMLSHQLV
For the compound `Cc1c(-c2ccc3c(c2)/C(=C/c2c[nH]c4ccccc24)C(=O)N3)cnc2c1NCCO2` [Compound C70, (Z)-3-((1H-indol-3-yl)methylene)-5-(8-methyl-2,3-dihydro-1H-pyrido[2,3-b][1,4]oxazin-7-yl)indolin-2-one], the IC50 is 0.42 nM. Take `O=C1Nc2ccc(-c3cnc4c(c3)NCCO4)cc2/C1=C/c1ncc[nH]1` [Compound C71, (Z)-3-((1H-imidazol-2-yl)methylene)-5-(2,3-dihydro-1H-pyrido[2,3-b][1,4]oxazin-7-yl)indolin-2-one]: the IC50 amounted to 66.7 nM.

`Cc1c(-c2ccc3c(c2)/C(=C/c2ncc[nH]2)C(=O)N3)cnc2c1NCC1(CC1)O2` [Compound C72, (Z)-3-((1H-imidazol-2-yl)methylene)-5-(8′-methyl-1′,2′-dihydrospiro[cyclopropane-1,3′-pyrido[2,3-b][1,4]oxazin]-7′-yl)indolin-2-one]: the IC50 was found to be 2.13 nM.

These data come from US11453681B2, “Substituted eneoxindoles and uses thereof” (Gilead Sciences, Inc., priority 2019, dated 2022).
